Literature values as cited in patent US20250195564A1, “IRON SUPPLEMENT COMPOSITIONS AND METHODS OF USE THEREOF” (ThermoLife International, LLC, priority 2021, published 2025).

Conditions: iron supplementation; without supplementation mean 36±11 days

SMILES: O=S(=O)([O-])[O-].[Fe+2] [iron sulfate]
- time of hemoglobin recovery after blood donation: 32 days
